{"source": "patent US12365674B2", "about": "“Inhibitors of histone deacetylase useful for the treatment or prevention of HIV infection” (Merck Sharp & Dohme LLC, priority 2019, dated 2025)"}
{"molecular_target": "T1, human HDAC3/SMRT heterodimer (Homo sapiens, UniProt O15379)", "T1 construct": "Full length human HDAC3-FLAG was expressed in HEK-293F cells along with SMRT; host or cells: HEK-293F cells", "T1 sequence (O15379 whole entry)": "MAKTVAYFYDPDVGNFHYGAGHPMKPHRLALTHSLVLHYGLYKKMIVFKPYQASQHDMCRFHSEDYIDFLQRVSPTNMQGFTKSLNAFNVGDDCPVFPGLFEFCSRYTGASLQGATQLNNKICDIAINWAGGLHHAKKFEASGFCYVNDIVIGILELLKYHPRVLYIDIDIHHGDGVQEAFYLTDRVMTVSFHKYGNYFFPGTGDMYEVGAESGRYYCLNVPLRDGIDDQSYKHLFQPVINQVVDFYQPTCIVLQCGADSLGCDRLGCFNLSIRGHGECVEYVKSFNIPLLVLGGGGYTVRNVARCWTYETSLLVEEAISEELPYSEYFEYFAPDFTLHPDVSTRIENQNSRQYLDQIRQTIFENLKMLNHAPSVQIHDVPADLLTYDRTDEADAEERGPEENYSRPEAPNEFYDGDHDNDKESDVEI", "T1 sequence (Q9Y618 1-899 partner limits assumed)": "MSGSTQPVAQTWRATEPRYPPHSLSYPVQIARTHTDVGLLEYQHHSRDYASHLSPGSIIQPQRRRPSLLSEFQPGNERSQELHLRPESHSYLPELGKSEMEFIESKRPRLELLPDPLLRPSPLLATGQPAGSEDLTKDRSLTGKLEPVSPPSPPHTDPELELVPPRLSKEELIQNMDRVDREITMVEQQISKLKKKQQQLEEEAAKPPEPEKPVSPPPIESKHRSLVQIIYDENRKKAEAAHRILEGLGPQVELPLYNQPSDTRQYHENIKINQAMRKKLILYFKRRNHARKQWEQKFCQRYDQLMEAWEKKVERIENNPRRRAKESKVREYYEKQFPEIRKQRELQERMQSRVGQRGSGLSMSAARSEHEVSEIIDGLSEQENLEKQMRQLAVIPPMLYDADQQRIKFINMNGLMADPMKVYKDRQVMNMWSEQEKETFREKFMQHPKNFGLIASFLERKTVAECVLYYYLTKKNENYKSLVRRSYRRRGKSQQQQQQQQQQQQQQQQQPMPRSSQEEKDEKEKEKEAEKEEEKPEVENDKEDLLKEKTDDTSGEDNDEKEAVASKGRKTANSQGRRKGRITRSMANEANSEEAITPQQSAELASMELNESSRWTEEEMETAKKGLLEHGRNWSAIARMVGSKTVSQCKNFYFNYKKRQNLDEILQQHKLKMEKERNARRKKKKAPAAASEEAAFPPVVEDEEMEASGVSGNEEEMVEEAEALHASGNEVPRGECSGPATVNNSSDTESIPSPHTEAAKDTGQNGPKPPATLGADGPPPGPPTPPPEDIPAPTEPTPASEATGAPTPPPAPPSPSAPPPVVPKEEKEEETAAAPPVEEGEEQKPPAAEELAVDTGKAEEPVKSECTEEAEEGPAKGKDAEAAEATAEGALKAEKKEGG", "assay": "Human HDAC enzyme inhibitor Fluor-de-Lys assay, HDAC3/SMRT", "assay_type": "biochemical", "settings": "HDAC3/SMRT 0.3 nM enzyme, 20 μM substrate BML-KI104, 10 μM IP4, 3 h pre-incubation, 60 min reaction; read-out: HDAC3_IC50", "from_the_text": "Recombinant human HDAC8 (catalog number BML-SE145-0100) and HDAC10 (catalog number BML-SE559-0050) enzymes, HDAC substrates BML-KI104 and BML-KI178, and HDAC developer solutions BML-KI105 and BML-KI176 were purchased from Enzo Life Sciences (Farmingdale, NY). Recombinant human HDAC5 and HDAC11 were purchased from BPS Bioscience (San Diego, CA)(catalog numbers 50045 and 50021). Substrate Boc-Lys(TFA)-AMC was obtained from Bachem (Bupendorf, Switzerland) (catalog number 1-1985). HDAC inhibitor suberoylanilide hydroxamic acid (SAHA) was obtained from Indofine (Hillsborough Township, NJ) and trichostatin A (TSA) was obtained from Sigma-Aldrich (St. Louis, MO). […] HEPES pH 8.0 was obtained from Boston BioProducts (Ashland, MA), Tween-20 from Fisher Scientific (Hampton, NH)(catalog number BP337), TCEP from Calbiochem and 7.5% bovine serum albumin (BSA) from Life Technologies (Carlsbad, CA) (catalog number 15260037). 384-well, black assay plates were obtained from Corning (Corning, NY) (catalog number 3575).\nRecombinant human HDAC1, HDAC2, and HDAC3/SMRT heterodimer were prepared by Merck Research Laboratories. […] The eluted protein was then passed over an anti-HDAC1 immunoaffinity column to remove any complexes containing HDAC1. […]\nThe histone deacetylase activities of HDAC1, HDAC2, HDAC3, HDAC6, and HDAC8 were measured in modified Fluor-de-Lys assays in 384-well format. In this assay, HDAC enzymes are initially incubated with an ε-acetyl (or -trifluoroacetyl)-L-lysine-containing substrate with a C-terminal amide having aminomethylcoumarin as the amine component. HDACs cleave the ε-acetyl group, rendering the resulting product susceptible to AMC cleavage by trypsin. The released AMC is then detected by its fluorescence.\nThe HDAC 1, 2 assays employed buffer A, which contained 20 mM HEPES, pH 8.0, 1 mM MgCl2, 137 mM NaCl, 2.7 mM KCl, 0.05% BSA. The HDAC3/SMRT assay employed buffer B, consisting of 20 mM HEPES, pH 8.0, 1 mM MgCl2, 50 mM NaCl, 2.7 mM KCl, 0.05% BSA, 0.005% Tween 20, and 10 μM IP4. The HDAC6 assay employed buffer C, consisting of 20 mM HEPES, pH 8.0, 1 mM MgCl2, 137 mM NaCl, 2.7 mM KCl, 0.5 mM TCEP (Calbiochem) and 0.05% BSA. The HDAC8 assay employed buffer D, consisting of 20 mM HEPES, pH 8.0, 1 mM MgCl2, 100 mM NaCl, 20 mM KCl, 0.1% n-octyl-β-D-glucoside (Anatrace, Maumee, OH) and 0.05% BSA. All steps were performed at room temperature (23° C.). The assay was performed by pre-incubating serial dilutions of test compounds with the target HDAC prior to initiation with substrate. Each compound was titrated in a 10-point dose response, using a 1:3 fold dilution scheme, with 0.15 ul of solution added by ECHO555 to the plate, followed by the addition of 20 μl of the appropriate HDAC isoform diluted in appropriate assay buffer. […] Final conditions used for each assay were: 1. HDAC 1, 0.3 nM total enzyme, 20 μM substrate BML-K1104; 2. HDAC 2, 1.5 nM total enzyme, 40 μM substrate BML-K1104; 3. HDAC 3/SMRT, 0.3 nM total enzyme, 20 μM substrate BML-K1104; 4. HDAC 6, 1.3 nM total enzyme, 2.5 μM substrate BML-K1104; 5. HDAC 8, 1.3 nM total enzyme, 200 μM substrate BML-K1178; the final high dose of test compound was 30 μM. […] The reactions were stopped and developed by addition of 30 ul of HDAC developer solution containing a saturating level of HDAC inhibitor as follows: 1.", "units": {"IC50": "nM"}}
{"smiles": "COc1nc2ccccc2cc1-c1cnc([C@@H](N)COCCCC(=O)c2ncco2)[nH]1", "note": "[Compound 1, (R)-4-(2-amino-2-(5-(2-methoxyquinolin-3-yl)-1H-imidazol-2-yl)ethoxy)-1-(oxazol-2-yl)butan-1-one]", "IC50": 185}
{"smiles": "COc1nc2ccccc2cc1-c1cnc([C@H](COCCCC(=O)c2ncco2)NC(=O)C23CCN(CC2)CC3)[nH]1", "note": "[Compound 12, N-{(1R)-1-[5-(2-methoxyquinolin-3-yl)-1H-imidazol-2-yl]-2-[4-(1,3-oxazol-2-yl)-4-oxobutoxy]ethyl}-1-azabicyclo[2.2.2]octane-4-carboxamide]", "IC50": 7.7}
{"smiles": "CN1CC(C(=O)N[C@@H](COCCCC(=O)c2ccon2)c2[nH]c(-c3ccc(F)cc3)nc2Cl)C1", "note": "[Compound 16, N-[(1R)-1-[4-chloro-2-(4-fluorophenyl)-1H-imidazol-5-yl]-2-(4-isoxazol-3-yl-4-oxobutoxy)ethyl]-1-methylazetidine-3-carboxamide]", "IC50": 9.2}
{"smiles": "CCC(=O)CCCOC[C@H](NC(=O)C12CCN(CC1)CC2)c1ncc(-c2cc3ccccc3nc2OC)[nH]1", "note": "[Compound 6, N-{(1R)-1-[5-(2-methoxyquinolin-3-yl)-1H-imidazol-2-yl]-2-[(4-oxohexyl)oxy]ethyl}-1-azabicyclo[2.2.2]octane-4-carboxamide]", "IC50": 87.3}
{"smiles": "COc1nc2ccccc2cc1-c1cnc([C@H](COCCCC(=O)c2ccon2)NC(=O)CN(C)C)[nH]1", "note": "[Compound 14, N-{(1R)-2-(4-isoxazol-3-yl-4-oxobutoxy)-1-[5-(2-methoxyquinolin-3-yl)-1H-imidazol-2-yl]ethyl}-N~2~,N~2~- dimethylglycinamide]", "IC50": 2.2}
{"smiles": "COc1nc2ccccc2cc1-c1cnc([C@H](COCCCC(=O)c2ncco2)NC(=O)c2cncs2)[nH]1", "note": "[Compound 10, N-{(1R)-1-[5-(2-methoxyquinolin-3-yl)-1H-imidazol-2-yl]-2-[4-(1,3-oxazol-2-yl)-4-oxobutoxy]ethyl}-1,3-thiazole-5-carboxamide]", "IC50": 3.6}
{"smiles": "COc1cc2nc(C)ccc2cc1-c1cnc([C@H](COCCCC(=O)c2cc(C)on2)NC(=O)[C@H]2CC23CCN(C)CC3)[nH]1", "note": "[Compound 20, (1S)-N-{(1R)-1-[5-(7-methoxy-2-methylquinolin-6-yl)-1H-imidazol-2-yl]-2-[4-(5-methylisoxazol-3-yl)-4-oxobutoxy]ethyl}-6-methyl-6-azaspiro[2.5]octane-1-carboxamide]", "IC50": 0.8}
{"smiles": "CNC(=O)C(=O)CCCOC[C@H](NC(=O)c1cncs1)c1ncc(-c2cc3ccccc3nc2OC)[nH]1", "note": "[Compound 8, N-[(1R)-1-[5-(2-methoxyquinolin-3-yl)-1H-imidazol-2-yl]-2-{[5-(methylamino)-4,5-dioxopentyl]oxy}ethyl]-1,3-thiazole-5-carboxamide]", "IC50": 1.5}
{"smiles": "COc1nc2ccccc2cc1-c1cnc([C@H](COCCCC(=O)c2ncco2)NC(=O)[C@H]2CC23CCN(C)CC3)[nH]1", "note": "[Compound 11, (1S)-N-{(1R)-1-[5-(2-methoxyquinolin-3-yl)-1H-imidazol-2-yl]-2-[4-(1,3-oxazol-2-yl)-4-oxobutoxy]ethyl}-6-methyl-6-azaspiro[2.5]octane-1-carboxamide]", "IC50": 5}
{"smiles": "CNC(=O)C(=O)CCCOC[C@H](NC(=O)C12CCN(CC1)CC2)c1ncc(-c2cc3ccccc3nc2OC)[nH]1", "note": "[Compound 9, N-[(1R)-1-[5-(2-methoxyquinolin-3-yl)-1H-imidazol-2-yl]-2-{[5-(methylamino)-4,5-dioxopentyl]oxy}ethyl]-1-azabicyclo[2.2.2]octane-4-carboxamide]", "IC50": 1.5}
{"smiles": "CN(C)CC(=O)N[C@@H](COCCCC(=O)c1ccon1)c1[nH]c(-c2ccc(F)cc2)nc1Cl", "note": "[Compound 17, N-[(1R)-1-[4-chloro-2-(4-fluorophenyl)-1H-imidazol-5-yl]-2-(4-isoxazol-3-yl-4-oxobutoxy)ethyl]-N~2~,N~2~- dimethylglycinamide]", "IC50": 17}
{"smiles": "COc1nc2ccccc2cc1-c1cnc([C@H](COCCCC(=O)c2ncco2)NC(=O)CN(C)C)[nH]1", "note": "[Compound 13, N-{(1R)-1-[5-(2-methoxyquinolin-3-yl)-1H-imidazol-2-yl]-2-[4-(1,3-oxazol-2-yl)-4-oxobutoxy]ethyl}-N~2~,N~2~- dimethylglycinamide]", "IC50": 3.8}
{"smiles": "COc1cc2nc(C)ccc2cc1-c1cnc([C@H](COCCCC(=O)c2cc(C)on2)NC(=O)C2CN(C)C2)[nH]1", "note": "[Compound 19, N-{(1R)-1-[5-(7-methoxy-2-methylquinolin-6-yl)-1H-imidazol-2-yl]-2-[4-(5-methylisoxazol-3-yl)-4-oxobutoxy]ethyl}-1-methylazetidine-3-carboxamide]", "IC50": 1.3}
{"smiles": "CN1CC(C(=O)N[C@@H](COCCCC(=O)c2ccon2)c2ncc(-c3ccccc3F)[nH]2)C1", "note": "[Compound 15, N-[(1R)-1-[5-(2-fluorophenyl)-1H-imidazol-2-yl]-2-(4-isoxazol-3-yl-4-oxobutoxy)ethyl]-1-methylazetidine-3-carboxamide]", "IC50": 1.6}
{"smiles": "Cc1ccc2cc(-c3cnc([C@H](CSCCCC(=O)c4ncco4)NC(=O)[C@H]4CC45CCN(C)CC5)[nH]3)ccc2n1", "note": "[Compound 21, (1S)-6-methyl-N-[(1R)-1-[5-(2-methylquinolin-6-yl)-1H-imidazol-2-yl]-2-{[4-(1,3-oxazol-2-yl)-4-oxobutyl]sulfanyl}ethyl]-6-azaspiro[2.5]octane-1-carboxamide]", "IC50": 1.5}
{"smiles": "CN1CCC2(CC1)C[C@@H]2C(=O)N[C@@H](COCCCC(=O)c1ccon1)c1[nH]c(-c2ccc(F)cc2)nc1Cl", "note": "[Compound 18, (1S)-N-[(1R)-1-[4-chloro-2-(4-fluorophenyl)-1H-imidazol-5-yl]-2-(4-isoxazol-3-yl-4-oxobutoxy)ethyl]-6-methyl-6-azaspiro[2.5]octane-1-carboxamide]", "IC50": 1.3}
{"smiles": "N[C@@H](COCCCC(=O)c1ccon1)c1ncc(-c2ccccc2F)[nH]1", "note": "[Compound 2, (R)-4-(2-amino-2-(5-(2-fluorophenyl)-1H-imidazol-2-yl)ethoxy)-1-(isoxazol-3-yl)butan-1-one]", "IC50": 272}
